Test results from ChEMBL document CHEMBL5346927, “Discovery of a novel 1H-pyrazole- [3,4-b] pyridine-based lysine demethylase 5B inhibitor with potential anti-prostate cancer activity that perturbs the phosphoinositide 3-kinase/AKT pathway” (Eur J Med Chem, 2023).
pIC50: −log10 of the molar value. Activity calls are given as the source filed them. The rule behind the calls is not given here.

Assays:
[1] = system: PC-3; test: Inhibition of PI3K/AKT pathway in human PC-3 cells assessed as decrease in P85 level at 10 to 20 uM by Western blot analysis; type: cell-based; details: dose 10-20 µM
[2] = Toxicity in BALB/C nude mouse xenografted with human PC-3 cells assessed as kidney damage at 25 to 50 mg/kg, IG administered for 25 days by H&E staining based analysis; type: organism-based; details: in vivo, po, 600 h, dose 25-50 mg/kg, time 25 day
[3] = Toxicity in BALB/C nude mouse xenografted with human PC-3 cells assessed as liver damage at 25 to 50 mg/kg, IG administered for 25 days by H&E staining based analysis; type: organism-based; details: in vivo, po, 600 h, dose 25-50 mg/kg, time 25 day
[4] = Apparent volume of distribution in ICR mouse at 5 mg/kg, iv measured at 0.083 to 24 hrs by LC-MS analysis; type: ADME, organism-based; details: in vivo, time 0.083-24 hrs
[5] = system: PC-3; test: Induction of apoptosis in human PC-3 cells assessed as early apoptotic cells at 2.5 uM incubated for 72 hrs by Annexin V-FITC/PI staining based flow cytometric analysis (reference value: 3.01%); type: functional
[6] = system: PC-3; test: Induction of apoptosis in human PC-3 cells assessed as viable cells at 5 uM incubated for 72 hrs by Annexin V-FITC/PI staining based flow cytometric analysis (reference value: 90.93%); type: functional; details: read-out: Activity
[7] = system: PC-3; test: Inhibition of PI3K/AKT pathway in human PC-3 cells assessed as decrease in P110alpha level at 2.5 to 5 uM by Western blot analysis; type: cell-based; details: dose 2.5-5 µM
[8] = molecular target: T1, Lysine-specific demethylase 5B (Homo sapiens, UniProt Q9UGL1); test: Inhibition of KDM5B (unknown origin)
[9] = system: PC-3; test: Induction of apoptosis in human PC-3 cells assessed as necrotic cells at 10 uM incubated for 72 hrs by Annexin V-FITC/PI staining based flow cytometric analysis (reference value: 5.01%); type: functional
[10] = molecular target: T1, Lysine-specific demethylase 5B; test: Inhibition of KDM5B in human PC-3 cells assessed as H3K4me3 accumulation incubated for 72 hrs by Western blot analysis; type: cell-based
[11] = Tmax in ICR mouse at 25 mg/kg, IG measured at 0.083 to 24 hrs by LC-MS analysis; type: ADME, organism-based; details: in vivo, po, time 0.083-24 hrs
[12] = Toxicity in BALB/C nude mouse xenografted with human PC-3 cells assessed as heart damage at 25 to 50 mg/kg, IG administered for 25 days by H&E staining based analysis; type: organism-based; details: in vivo, po, 600 h, dose 25-50 mg/kg, time 25 day
[13] = system: PC-3; test: Inhibition of PI3K/AKT pathway in human PC-3 cells assessed as decrease in P110alpha level at 10 uM by Western blot analysis; type: cell-based
[14] = system: PC-3; test: Induction of cell cycle arrest in human PC-3 cells assessed as increase in G2/M phase cell ratio at 2.5 uM incubated for 24 hrs by PI/RNase A staining based flow cytometric analysis (reference value: 16.07%); type: functional
[15] = Acute toxicity in Kunming mouse assessed as effect on weight at 2 g/Kg, IG measured after 2 weeks; details: in vivo, po, 2000 mg/kg, 336 h
[16] = system: PC-3; test: Inhibition of PI3K/AKT pathway in human PC-3 cells assessed as decrease in AKT phosphorylation at Ser473 residue at 2.5 to 10 uM by Western blot analysis; type: cell-based; details: dose 2.5-10 µM
[17] = Half-life in ICR mouse at 5 mg/kg, iv measured at 0.083 to 24 hrs by LC-MS analysis; type: ADME, organism-based; details: in vivo, time 0.083-24 hrs
[18] = Acute toxicity in Kunming mouse assessed as effect on liver at 2 g/Kg, IG measured after 2 weeks by H&E staining based analysis; type: tissue-based; details: in vivo, po, 2000 mg/kg, 336 h
[19] = system: PC-3; test: Inhibition of PI3K/AKT pathway in human PC-3 cells assessed as decrease in AKT phosphorylation at Thr308 residue at 2.5 to 10 uM by Western blot analysis; type: cell-based; details: dose 2.5-10 µM
[20] = molecular target: T1, Lysine-specific demethylase 5B; test: Inhibition of KDM5B (unknown origin) at 10 uM relative to control
[21] = Clearance in ICR mouse at 5 mg/kg, iv measured at 0.083 to 24 hrs by LC-MS analysis; type: ADME, organism-based; details: in vivo, time 0.083-24 hrs
[22] = system: PC-3; test: Induction of apoptosis in human PC-3 cells assessed as early apoptotic cells at 5 uM incubated for 72 hrs by Annexin V-FITC/PI staining based flow cytometric analysis (reference value: 3.01%); type: functional
[23] = AUC (0 to t) in ICR mouse at 25 mg/kg, IG measured at 0.083 to 24 hrs by LC-MS analysis; type: ADME, organism-based; parameters: dose 25 mg/kg, time upper 24 hrs, time lower 0.083 hrs, route ig; details: in vivo, po
[24] = Acute toxicity in Kunming mouse assessed as effect on heart at 2 g/Kg, IG measured after 2 weeks by H&E staining based analysis; type: tissue-based; details: in vivo, po, 2000 mg/kg, 336 h
[25] = Acute toxicity in Kunming mouse assessed as effect on behavioral abnormalities at 2 g/Kg, IG measured after 2 weeks; details: in vivo, po, 2000 mg/kg, 336 h
[26] = system: PC-3; test: Induction of apoptosis in human PC-3 cells assessed as late apoptotic cells at 5 uM incubated for 72 hrs by Annexin V-FITC/PI staining based flow cytometric analysis (reference value: 1.05%); type: functional
[27] = system: PC-3; test: Induction of cell cycle arrest in human PC-3 cells assessed as increase in G2/M phase cell ratio at 5 uM incubated for 24 hrs by PI/RNase A staining based flow cytometric analysis (reference value: 16.07%); type: functional
[28] = system: PC-3; test: Induction of apoptosis in human PC-3 cells assessed as late apoptotic cells at 2.5 uM incubated for 72 hrs by Annexin V-FITC/PI staining based flow cytometric analysis (reference value: 1.05%); type: functional
[29] = Oral bioavailability in ICR mouse at 25 mg/kg measured at 0.083 to 24 hrs by LC-MS analysis; type: ADME, organism-based; details: in vivo, time 0.083-24 hrs
[30] = system: PC-3; test: Inhibition of PI3K/AKT pathway in human PC-3 cells assessed as decrease in AKT phosphorylation at Ser473 residue at 20 uM by Western blot analysis relative to control; type: cell-based
[31] = Acute toxicity in Kunming mouse assessed as effect on lung at 2 g/Kg, IG measured after 2 weeks by H&E staining based analysis; type: tissue-based; details: in vivo, po, 2000 mg/kg, 336 h
[32] = Acute toxicity in Kunming mouse assessed as effect on kidney at 2 g/Kg, IG measured after 2 weeks by H&E staining based analysis; type: tissue-based; details: in vivo, po, 2000 mg/kg, 336 h
[33] = Toxicity in BALB/C nude mouse xenografted with human PC-3 cells assessed as indistinct prostate tube wall at 25 mg/kg, IG administered for 25 days by H&E staining based analysis; type: organism-based; details: in vivo, po, 600 h, time 25 day
[34] = system: MGC-803; test: Antitumor activity against human MGC-803 cells assessed as inhibition of cell proliferation incubated for 72 hrs by MTT assay; type: functional, cell-based; details: MGC-803, 72 h
[35] = system: PC-3; test: Inhibition of PI3K/AKT pathway in human PC-3 cells assessed as decrease in P85 level at 2.5 to 5 uM by Western blot analysis; type: cell-based; details: dose 2.5-5 µM
[36] = system: HepG2; test: Antitumor activity against human HepG2 cells assessed as inhibition of cell proliferation incubated for 72 hrs by MTT assay; type: functional, cell-based; details: HepG2, 72 h
[37] = Toxicity in BALB/C nude mouse xenografted with human PC-3 cells assessed as lung damage at 25 to 50 mg/kg, IG administered for 25 days by H&E staining based analysis; type: organism-based; details: in vivo, po, 600 h, dose 25-50 mg/kg, time 25 day

T1 sequence (Q9UGL1 whole entry): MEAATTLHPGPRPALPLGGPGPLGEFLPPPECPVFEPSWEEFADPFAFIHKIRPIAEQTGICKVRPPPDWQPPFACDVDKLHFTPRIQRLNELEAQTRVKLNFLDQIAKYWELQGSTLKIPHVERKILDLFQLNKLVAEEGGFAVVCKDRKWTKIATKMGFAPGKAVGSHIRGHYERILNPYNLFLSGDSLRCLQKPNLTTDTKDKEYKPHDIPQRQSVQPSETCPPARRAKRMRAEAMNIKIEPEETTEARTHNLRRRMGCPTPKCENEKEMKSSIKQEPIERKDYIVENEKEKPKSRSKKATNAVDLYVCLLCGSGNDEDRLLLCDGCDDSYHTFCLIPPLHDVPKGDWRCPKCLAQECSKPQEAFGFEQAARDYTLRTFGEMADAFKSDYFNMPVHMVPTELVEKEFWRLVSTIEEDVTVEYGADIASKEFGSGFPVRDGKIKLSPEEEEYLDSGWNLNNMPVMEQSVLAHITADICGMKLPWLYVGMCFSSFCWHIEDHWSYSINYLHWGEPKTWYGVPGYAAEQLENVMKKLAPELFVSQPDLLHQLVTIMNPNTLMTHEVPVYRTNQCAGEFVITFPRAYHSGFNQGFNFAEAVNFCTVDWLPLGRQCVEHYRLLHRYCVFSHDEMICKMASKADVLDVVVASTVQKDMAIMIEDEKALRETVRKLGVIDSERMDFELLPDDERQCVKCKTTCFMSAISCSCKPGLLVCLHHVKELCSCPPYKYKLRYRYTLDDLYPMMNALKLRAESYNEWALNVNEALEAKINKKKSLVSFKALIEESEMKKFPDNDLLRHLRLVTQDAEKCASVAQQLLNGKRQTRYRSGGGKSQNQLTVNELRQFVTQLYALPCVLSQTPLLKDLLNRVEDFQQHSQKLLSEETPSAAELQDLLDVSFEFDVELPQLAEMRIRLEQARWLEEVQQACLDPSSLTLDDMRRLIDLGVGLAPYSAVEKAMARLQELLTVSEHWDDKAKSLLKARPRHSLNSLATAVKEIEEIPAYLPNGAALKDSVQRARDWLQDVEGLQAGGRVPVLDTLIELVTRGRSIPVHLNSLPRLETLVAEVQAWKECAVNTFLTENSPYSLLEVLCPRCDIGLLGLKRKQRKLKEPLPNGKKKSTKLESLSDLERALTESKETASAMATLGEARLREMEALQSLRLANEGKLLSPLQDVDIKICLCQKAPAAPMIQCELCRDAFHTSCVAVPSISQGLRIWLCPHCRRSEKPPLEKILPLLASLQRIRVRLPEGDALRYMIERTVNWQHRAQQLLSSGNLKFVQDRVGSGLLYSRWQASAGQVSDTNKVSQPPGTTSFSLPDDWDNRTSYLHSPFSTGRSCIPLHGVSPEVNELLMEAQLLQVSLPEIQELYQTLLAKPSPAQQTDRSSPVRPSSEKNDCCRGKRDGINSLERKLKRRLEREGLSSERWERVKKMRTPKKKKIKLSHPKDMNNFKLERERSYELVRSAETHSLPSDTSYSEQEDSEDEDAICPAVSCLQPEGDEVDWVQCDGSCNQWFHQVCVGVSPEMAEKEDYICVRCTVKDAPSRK

## CN1CCN(CCNC(=O)c2cc(-c3ccc4ccccc4c3)nc3c2cnn3-c2ccccc2)CC1
[1]
  inhibition: Active
[2]
  Activity: Non-Toxic
[3]
  Activity: Non-Toxic
[4]
  Vz: 19.51 L/kg
[5]
  Activity: 0.7%
[6]
  viability at 5 µM: 73%
[7]
  inhibition: inactive
[8]
  pIC50: 7.60
[9]
  Activity: 23.96%
[10]
  inhibition: Dose-Dependent Effect
[11]
  Tmax: 6 h
[12]
  Activity: Non-Toxic
[13]
  inhibition: Active
[14]
  Activity: 18.17%
[15]
  Activity: Non-Toxic
[16]
  inhibition: inactive
[17]
  t1/2: 2.95 h
[18]
  Activity: Non-Toxic
[19]
  inhibition: inactive
[20]
  inhibition: 102%
[21]
  CL: 8.17 mL/min/kg
[22]
  Activity: 0.64%
[23]
  AUCt: 3024.33 ng·h/mL
[24]
  Activity: Non-Toxic
[25]
  Activity: Non-Toxic
[26]
  Activity: 7.54%
[27]
  Activity: 27.47%
[28]
  Activity: 5.94%
[29]
  F: 20.28%
[30]
  inhibition: 40%
[31]
  Activity: Non-Toxic
[32]
  Activity: Non-Toxic
[33]
  Activity: Non-Toxic
[34]
  pIC50: 5.22
[35]
  inhibition: inactive
[36]
  pIC50: 5.24
[37]
  Activity: Non-Toxic
